From patent US5169758A (Boehringer Mannheim GmbH, priority 1986, dated 1992) come the findings set out here.

The test system of this assay is NAD(P)H-dependent, soluble nitrate reductase of the assimilatory type (E.C. 1.6.6.2) from mould fungus. The settings on record: nitrite acts as inhibitor above this concentration.

For `O=NO` [nitrite], the “Inhibitor concentration (product inhibition)” value is on record as “more than 10^-4 M”.
